Reference: patent US10947242B2, “[1,2,4]triazolo[1,5and#8208;A]pyrimidine compounds as PDE2 inhibitors” (Janssen Pharmaceutica NV, priority 2016, dated 2021)
Where two headings read alike, the source gives them in different places.

Experiments:
Format in all cases: biochemical
[1] = target: T1, Human recombinant PDE10A (hPDE10A) (Homo sapiens, UniProt Q9Y233); test: In vitro assay PDE10A, human clone (SPA, 3H-cAMP hydrolysis)
T1 construct: His tag (inferred from metal chelate purification); made in house; host or cells: Sf9 insect cells (baculovirus)
Procedure, shortened: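 Human recombinant PDE10A was expressed in Sf9 cells via baculovirus and incubated with compound in 50 mM Tris pH 7.8, 8.3 mM MgCl2, 1.7 mM EGTA. Substrate was 60 nM cAMP plus 0.008 μCi 3H-cAMP for 60 min at room temperature, read by SPA scintillation counting. Controls used 1% DMSO, and blanks omitted enzyme.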

[2] = target: T2, Human recombinant PDE2A (hPDE2A) (Homo sapiens, UniProt O00408); test: In vitro assay PDE2A (SPA, 3H-cGMP hydrolysis); details: for Emax: read-out: hPDE2A Emax
T2 construct: His tag (inferred from metal chelate purification); made in house; host or cells: Sf9 insect cells (baculovirus)

[3] = target: T3, Human recombinant PDE3A (hPDE3A) (Homo sapiens, UniProt Q14432); test: In vitro assay PDE3A (SPA, 3H-cAMP hydrolysis); details: for IC50: hPDE3B pIC50; for Emax: read-out: hPDE3B Emax, read-out: Emax;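 as to Emax: the method names PDE3A and the table heading PDE3B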
T3 construct: purchased Scottish Biomedical; host or cells: Sf9 insect cells
Procedure, shortened: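 Human PDE3A, cloned from brain, as partially purified Sf9 lysate. Substrate 0.4 μM cAMP plus [3H]-cAMP (2.4 μCi/ml final) in 50 mM Tris pH 7.8, 8.3 mM MgCl2, 1.7 mM EGTA, 60 min at room temperature, 1% DMSO final. Hydrolysis read by SPA scintillation counting against no-enzyme blanks and DMSO controls.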

[4] = human clone (h), default, read-out: hPDE10A2 Emax
[5] = human clone (h), default, read-out: hPDE10A2 pIC50 (converted)
[6] = read-out: hPDE2A pIC50 (converted)
[7] = human recombinant PDE2A, 10 μM cGMP substrate, read-out: hPDE2A pIC50 (converted)
[8] = human clone by default (no (r) mark), read-out: hPDE10A2 or rPDE10A2 Emax
[9] = human clone by default (no (r) mark), read-out: hPDE10A2 or rPDE10A2 pIC50 (converted)

T2 sequence (O00408 whole entry): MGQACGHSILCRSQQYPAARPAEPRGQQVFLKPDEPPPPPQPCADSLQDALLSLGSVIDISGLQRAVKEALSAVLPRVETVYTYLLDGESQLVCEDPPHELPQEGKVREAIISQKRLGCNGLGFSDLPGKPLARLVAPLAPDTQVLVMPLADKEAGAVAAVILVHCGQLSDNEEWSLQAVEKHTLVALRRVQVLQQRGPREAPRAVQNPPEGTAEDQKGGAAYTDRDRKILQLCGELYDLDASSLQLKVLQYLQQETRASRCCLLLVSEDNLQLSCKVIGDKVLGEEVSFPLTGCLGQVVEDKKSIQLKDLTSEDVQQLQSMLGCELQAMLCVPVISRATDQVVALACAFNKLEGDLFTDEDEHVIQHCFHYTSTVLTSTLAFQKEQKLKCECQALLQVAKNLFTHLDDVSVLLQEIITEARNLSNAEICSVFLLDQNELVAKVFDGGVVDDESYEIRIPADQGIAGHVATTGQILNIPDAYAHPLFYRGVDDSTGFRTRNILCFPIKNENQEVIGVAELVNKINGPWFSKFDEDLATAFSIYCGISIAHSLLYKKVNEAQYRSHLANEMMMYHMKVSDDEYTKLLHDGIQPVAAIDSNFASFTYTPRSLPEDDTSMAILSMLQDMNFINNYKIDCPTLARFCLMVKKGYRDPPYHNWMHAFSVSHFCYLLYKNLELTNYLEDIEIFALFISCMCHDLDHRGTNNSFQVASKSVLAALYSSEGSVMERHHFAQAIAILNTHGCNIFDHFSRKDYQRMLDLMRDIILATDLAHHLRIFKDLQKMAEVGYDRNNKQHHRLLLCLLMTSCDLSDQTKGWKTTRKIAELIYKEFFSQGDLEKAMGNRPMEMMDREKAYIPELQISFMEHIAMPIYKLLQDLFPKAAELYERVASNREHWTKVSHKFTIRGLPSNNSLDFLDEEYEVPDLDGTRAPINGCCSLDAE
T3 sequence (Q14432 whole entry): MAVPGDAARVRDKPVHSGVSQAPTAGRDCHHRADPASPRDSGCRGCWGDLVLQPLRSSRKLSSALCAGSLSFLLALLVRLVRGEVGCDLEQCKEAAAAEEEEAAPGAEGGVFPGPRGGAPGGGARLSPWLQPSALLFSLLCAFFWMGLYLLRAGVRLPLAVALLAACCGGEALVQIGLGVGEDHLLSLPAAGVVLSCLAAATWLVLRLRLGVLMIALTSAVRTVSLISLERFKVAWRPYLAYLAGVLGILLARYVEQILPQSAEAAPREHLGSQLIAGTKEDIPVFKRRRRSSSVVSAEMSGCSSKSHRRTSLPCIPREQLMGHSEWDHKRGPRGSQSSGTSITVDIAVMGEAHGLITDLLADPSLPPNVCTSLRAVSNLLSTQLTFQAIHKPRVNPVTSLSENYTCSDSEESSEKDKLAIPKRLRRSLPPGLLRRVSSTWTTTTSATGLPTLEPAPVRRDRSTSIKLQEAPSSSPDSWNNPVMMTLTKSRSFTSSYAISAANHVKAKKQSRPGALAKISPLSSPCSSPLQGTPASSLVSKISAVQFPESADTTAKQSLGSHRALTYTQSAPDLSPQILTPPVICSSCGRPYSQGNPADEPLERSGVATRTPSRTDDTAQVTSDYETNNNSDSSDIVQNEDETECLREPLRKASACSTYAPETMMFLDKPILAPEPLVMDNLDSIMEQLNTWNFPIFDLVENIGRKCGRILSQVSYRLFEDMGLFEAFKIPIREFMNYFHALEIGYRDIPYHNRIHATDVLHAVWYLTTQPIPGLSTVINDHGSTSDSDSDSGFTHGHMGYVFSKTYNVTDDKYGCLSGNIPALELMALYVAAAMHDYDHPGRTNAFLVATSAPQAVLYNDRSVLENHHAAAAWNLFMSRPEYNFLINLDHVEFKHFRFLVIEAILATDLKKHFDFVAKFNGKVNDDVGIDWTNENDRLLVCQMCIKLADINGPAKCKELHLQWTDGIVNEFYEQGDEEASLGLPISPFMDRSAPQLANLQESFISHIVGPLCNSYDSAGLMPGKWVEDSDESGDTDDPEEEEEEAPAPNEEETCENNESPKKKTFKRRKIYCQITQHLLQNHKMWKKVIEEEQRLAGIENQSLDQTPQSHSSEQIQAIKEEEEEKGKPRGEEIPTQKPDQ
T1 sequence (Q9Y233 267-1055): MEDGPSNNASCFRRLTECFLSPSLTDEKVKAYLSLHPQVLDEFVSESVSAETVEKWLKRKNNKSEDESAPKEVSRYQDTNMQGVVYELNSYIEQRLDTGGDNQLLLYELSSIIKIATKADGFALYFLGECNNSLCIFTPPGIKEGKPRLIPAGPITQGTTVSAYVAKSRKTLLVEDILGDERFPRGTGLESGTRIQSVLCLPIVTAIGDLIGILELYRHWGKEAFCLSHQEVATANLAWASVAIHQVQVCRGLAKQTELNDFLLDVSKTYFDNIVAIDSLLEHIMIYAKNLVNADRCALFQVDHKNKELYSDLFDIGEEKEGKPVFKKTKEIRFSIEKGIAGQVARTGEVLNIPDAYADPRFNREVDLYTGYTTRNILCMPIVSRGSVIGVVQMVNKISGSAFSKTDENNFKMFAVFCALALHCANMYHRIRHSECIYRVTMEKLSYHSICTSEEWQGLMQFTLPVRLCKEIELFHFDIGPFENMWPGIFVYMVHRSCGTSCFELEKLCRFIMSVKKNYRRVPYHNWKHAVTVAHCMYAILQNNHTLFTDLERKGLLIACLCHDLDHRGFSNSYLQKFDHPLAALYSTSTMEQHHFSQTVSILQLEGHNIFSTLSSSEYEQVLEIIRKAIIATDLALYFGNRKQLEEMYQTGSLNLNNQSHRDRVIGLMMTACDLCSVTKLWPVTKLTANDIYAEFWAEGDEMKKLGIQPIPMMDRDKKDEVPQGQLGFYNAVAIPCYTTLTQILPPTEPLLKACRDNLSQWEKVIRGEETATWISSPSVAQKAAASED

| Compound | Emax [1, 4] | IC50 [1, 5] | Emax [2] | IC50 [2, 6] | IC50 ([3]; read-out: pIC50 (converted)) | Emax [3] | IC50 [2, 7] | Emax ([2]; human recombinant PDE2A) | IC50 ([1]; hPDE10A2 or rPDE10A2 pIC50, human clone by default (no (r) mark)) | Emax [1, 8] | IC50 ([2]; hPDE2A pIC50) | IC50 [3] | IC50 [1, 9] | IC50 ([2]; hPDE2A pIC50, human recombinant PDE2A, 10 μM cGMP substrate) |
| --- | --- | --- | --- | --- | --- | --- | --- | --- | --- | --- | --- | --- | --- | --- |
| C[C@@H]1CCN(C(=O)c2cnc3ccccc3c2O)C[C@H]1c1cc(C(F)F)nc2ncnn12 [Compound 146] | 76% | 3.31 µM | 100% | 0.0372 µM | 1.66 µM | 85% |  |  |  |  |  |  |  |  |
| C[C@@H]1CCN(C(=O)c2cc(-c3ccco3)nn2C)C[C@H]1c1cc(C(F)F)nc2ncnn12 [Compound 98] | 98% | 0.0398 µM | 100% | 0.000603 µM | 0.603 µM | 94% | 0.000603 µM | 100% |  |  |  |  |  |  |
| C[C@@H]1CCN(C(=O)c2cn(C)cn2)C[C@H]1c1cc(C(F)F)nc2ncnn12 [Compound 58] | 69% | 4.47 µM | 99% | 0.0245 µM | > 10 µM | 18% | 0.0245 µM | 99% |  |  |  |  |  |  |
| Cc1nc2cc(C(=O)N3[C@H]4CC[C@H](c5cc(C(F)F)nc6ncnn56)[C@@H]3CC4)ccc2o1 [Compound 306] |  |  | 100% |  |  | 71% |  |  | 3.63 µM | 74% | 0.0447 µM | 4.47 µM |  |  |
| C[C@@H]1CCN(C(=O)c2cnc3n2CCCC3)C[C@H]1c1cc(C(F)F)nc2ncnn12 [Compound 179] | 90% | 0.537 µM | 100% | 0.0214 µM | > 10 µM | 32% | 0.0214 µM | 100% |  |  |  |  |  |  |
| Cc1cc(C(=O)N2[C@H]3CC[C@H](c4cc(C(F)F)nc5ncnn45)[C@@H]2CC3)c(C)s1 [Compound 358] |  |  | 102% | 0.0269 µM | > 10 µM | 40% |  |  |  | 58% |  |  | 7.94 µM |  |
| Cc1cc([C@H]2CN(C(=O)c3cc(C)c(Cl)c(C)c3)CC[C@@H]2C)n2ncnc2n1 [Compound 218] | 85% | 2.24 µM | 100% |  | > 10 µM | 51% |  |  |  | 85% | 0.204 µM |  | 2.24 µM | 0.204 µM |
| Cc1cc(C(=O)N2CC[C@@H](C)[C@H](c3cc(C(F)F)nc4ncnn34)C2)cc(CO)n1 [Compound 361] |  |  | 100% | 0.00275 µM | > 10 µM | 37% |  |  |  | 92% |  |  | 0.355 µM |  |
| C[C@@H]1CCN(C(=O)c2ccc3ccccc3n2)C[C@H]1c1cc(C(F)F)nc2ncnn12 [Compound 323] |  |  | 100% | 0.00389 µM | 0.724 µM | 95% |  |  |  | 97% |  |  | 0.224 µM |  |
| Cc1cc2cc(C(=O)N3[C@H]4CC[C@H](c5cc(C(F)F)nc6ncnn56)[C@@H]3CC4)ccc2n1C [Compound 373] |  |  | 100% | 0.00269 µM | 0.537 µM | 97% |  |  |  | 99% |  |  | 0.316 µM |  |
| O=C(c1cc2n(n1)CCO2)N1[C@H]2CC[C@H](c3cc(C(F)F)nc4ncnn34)[C@@H]1CC2 [Compound 367] |  |  | 97% | 0.437 µM | > 10 µM | 21% |  |  |  | 44% |  |  | > 10 µM |  |
| COc1c(C)cc(C(=O)N2CC[C@@H](C)[C@@](F)(c3cc(C(F)F)nc4ncnn34)C2)cc1C [Compound 75] | 27% | > 10 µM | 81% | 2.95 µM | > 10 µM | 22% | 2.95 µM | 81% |  |  |  |  |  |  |
| C[C@@H]1CCN(C(=O)c2cc(C#N)ccn2)C[C@H]1c1cc(C(F)F)nc2ncnn12 [Compound 163] | 74% | 3.24 µM | 98% | 0.0891 µM | > 10 µM | 12% | 0.0891 µM | 98% |  |  |  |  |  |  |
| C[C@@H]1CCN(C(=O)c2cncn2C)C[C@H]1c1cc(C(F)F)nc2ncnn12 [Compound 164] | 82% | 1.95 µM | 100% | 0.0891 µM | > 10 µM | 22% | 0.0891 µM | 100% |  |  |  |  |  |  |
| COc1c(F)cc(C(=O)N2[C@H]3CC[C@H](c4cc(C(F)F)nc5ncnn45)[C@@H]2CC3)cc1F [Compound 359] |  |  | 99% | 0.012 µM | 3.98 µM | 71% |  |  |  | 86% |  |  | 2.14 µM |  |
| C[C@@H]1CCN(C(=O)c2ccc(F)cn2)C[C@H]1c1cc(C(F)F)nc2ncnn12 [Compound 251] | 53% | 8.71 µM | 98% | 0.282 µM | > 10 µM | 17% |  |  |  | 53% |  |  | 8.71 µM |  |
| Cc1csc2ccc(C(=O)N3CC[C@@H](C)[C@H](c4cc(C(F)F)nc5ncnn45)C3)nc12 [Compound 100] | 100% | 0.0162 µM | 101% | 0.000661 µM | 0.269 µM | 99% | 0.000661 µM | 101% |  |  |  |  |  |  |
| O=C(c1ccc(F)c(OC(F)F)c1)N1[C@H]2CC[C@H](c3cc(C(F)F)nc4ncnn34)[C@@H]1CC2 [Compound 345] |  |  | 99% | 0.0759 µM | 8.32 µM | 48% |  |  |  | 72% |  |  | 3.72 µM |  |
| C[C@@H]1CCN(C(=O)c2ccc(C3CC3)c(C3CC3)c2)C[C@H]1c1cc(C(F)F)nc2ncnn12 [Compound 226] | 100% | 0.0813 µM | 100% | 0.000871 µM | 0.129 µM | 100% | 0.000871 µM | 100% |  | 100% |  |  | 0.0813 µM |  |
| Cn1ccc2cc(C(=O)N3[C@H]4CC[C@H](c5cc(C(F)F)nc6ncnn56)[C@@H]3CC4)ncc21 [Compound 382] |  |  | 99% | 0.0102 µM | > 10 µM | 37% |  |  |  | 75% |  |  | 3.98 µM |  |
| COc1c(F)cc(C(=O)N2CC[C@@H](C)[C@H](c3cc(C(F)F)nc4ncnn34)C2)cc1F [Compound 128] | 98% | 0.155 µM | 100% | 0.00229 µM | 0.933 µM | 90% | 0.00229 µM | 100% |  |  |  |  |  |  |
| C[C@@H]1CCN(C(=O)c2cnc(O)c(Cl)c2)C[C@H]1c1cc(C(F)F)nc2ncnn12 [Compound 173] | 96% | 0.302 µM | 101% | 0.0138 µM | > 10 µM | 31% | 0.0138 µM | 101% |  |  |  |  |  |  |
